Consider 2 compounds from BindingDB's records for patent US11590142 (Bugworks Research, 2023).

For this assay, the target named is DNA gyrase (Escherichia coli, UniProt P0AES4+P0AES6). The assay can be described thus: Enzyme Inhibition Assay.

pIC50: −log10 of the molar value.

Protocol: The reactions were then started with the addition of 60 ng relaxed pBR322 plasmid DNA and continued for 45 min at 37° C. The reaction mixture contained 35 mM Tris.HCl (pH 7.5), 24 mM KCl, 1.8 mM spermidine, 4 mM MgCl2, 2 mM DTT, 6.5% (w/v) glycerol, 0.1 mg/mL BSA, and 1 mM ATP. The reaction was then stopped by addition of 0.75 L of Proteinase K (20 mg/mL) and 3 μL of 2% SDS and further incubated at 37° C. for 30 min. This was followed by the addition of 4 μL of STEB (40% (w/v) sucrose, 100 mM Tris-HCl pH8, 1 mM EDTA, 0.5 mg/ml Bromophenol Blue), and the supercoiled/relaxed forms of plasmid DNA were separated by agarose gel electrophoresis. The 1% agarose gels were run for 3 h at 4V/cm in 1×TAE (40 mM Tris, 20 mM Acetic acid, 1 mM EDTA). To visualize the DNA the gels were stained for 10 min with 0.7 g/mL ethidium bromide and excess dye was removed by several washes with water. IC50 were determined by quantifying the supercoiled and relaxed DNA in each of the reactions from a gel image by a densitometric method using the Quantity One Software (Bio-rad).

For `Cn1c(=O)ccc2ncc(OCCNC[C@H]3CN(c4ccc5c(n4)NC(=O)CO5)C(=O)O3)nc21` [US11590142, Compound 5], the pIC50 (in general, the negative decadic logarithm of the IC50, by convention in mol/L) was 7.49.

Regarding `Cn1c(=O)cnc2ccc(OCCNC[C@H]3CN(c4ccc5c(n4)NC(=O)CO5)C(=O)O3)nc21` [US11590142, Compound 3], the pIC50 is 7.33.
